Experimental data as given in US20130217761A1 (Laboratorio Catarinense S/A, priority 2009, published 2013).

What was measured:
isolated rabbit heart [1] = experiment: re-induction of ventricular fibrillation after reversal (protective effect), isolated rabbit heart; conditions: new attempt to induce ventricular fibrillation 5 minutes after reversal
Experimental: In order to carry out the experiments, twenty-seven male and female white New Zealand rabbits, weighing 2.5-3.5 kg, received 100 Ul/kg of intravenous heparin and were killed by cervical displacement.
The thorax was rapidly opened by middle-sized incision, and the sternum beaten back for complete exposure of the inside of the thorax. The pericardium was removed and the rising part of the aorta was isolated and repaired with a cotton thread 3-0. A metallic cannula was then inserted and fixed to the proximal portion of the aorta, retrograde perfusion of oxygenated Krebs-Henseleit solution was initiated and heated up to 37° C. with constant flow of 13 mL/minute, kept by a continuous-infusion pump, Harvard Apparatus model RS232. The cannula tip was positioned quite close to the aortic valve to permit adequate coronary perfusion.
The heart was then removed and suspended through the cannula in a classic Langenhorff preparation. […]
Two pairs of electrodes (Monicron 2-O) were saturated on the LV: one at the tip, called proximal (P) and the other at the branching of front descending coronary artery branching with the first diagonal, called distal (D). […] The cardiac frequency was determined by measuring the interval between two consecutive electrograms and transformed into beats per minute (bpm). […]

isolated rabbit heart [2] = experiment: reversal of sustained electrically induced ventricular fibrillation, isolated rabbit heart (Langendorff preparation); conditions: added to perfusate
Experimental: The thorax was rapidly opened by middle-sized incision, and the sternum beaten back for complete exposure of the inside of the thorax. […] A metallic cannula was then inserted and fixed to the proximal portion of the aorta, retrograde perfusion of oxygenated Krebs-Henseleit solution was initiated and heated up to 37° C. with constant flow of 13 mL/minute, kept by a continuous-infusion pump, Harvard Apparatus model RS232. The cannula tip was positioned quite close to the aortic valve to permit adequate coronary perfusion.
The heart was then removed and suspended through the cannula in a classic Langenhorff preparation. The Krebs Henseleit composition used was: 115 mM NaCl; 5.4 mM KCL; 1.25 mM CaCl2; 25 mM NaHCO3; 1.2 mM MgSO4; 1.5 mM NaH2PO4 and 11 nM glucose. […]

Compound	prevention of re-induction of ventricular fibrillation by electric stimulus (isolated rabbit heart [1])	reversal of sustained ventricular fibrillation (in words) (isolated rabbit heart [2])
CCN(CC)CC(=O)Nc1c(C)cccc1C [lidocain]	does not prevent the reinduction	
CCCCc1oc2ccccc2c1C(=O)c1cc(I)c(OCCN(CC)CC)c(I)c1 [amiodarone]		do not have any effect
CC(C)NCC(O)COc1cccc2ccccc12 (stereo not drawn) [propranolol]		do not have any effect
